Literature values as cited in patent publication US5414009A, “Azabicyclo substituted oxa- or thia-diazole compounds” (Novo Nordisk A/S, priority 1992, dated 1995).
Like-named read-outs stand apart in the source and are kept apart here.

How the values were obtained:
[1] = in vivo
[2] = system: muscarinic receptor in the CNS; conditions: for Kd: read-out: affinity of sites labelled by 3H-Oxo
M1-sites = conditions: M1-site, pirenzepine sensitive site

## COC(=O)C1=CCCN(C)C1 [Arecoline, methyl 1-methyl-1,2,5,6-tetrahydropyridine-3-carboxylate]
[1]
  biological half life: very short biological half life
muscarinic
  separation between central and peripheral muscarinic effects: small separation between central and peripheral muscarinic effects
Muscarinic cholinergic
  cholinergic agonism: cholinergic agonist

## C[N+](C)(C)CC#CCN1CCCC1=O [Compound 3H-Oxo]
[2]; CNS
  preference for agonist domains of the receptors: with a preference for agonist domains of the receptors
[2]; first of three sites (high affinity)
  Kd: 1.8 nM
[2]; second of three sites (medium affinity)
  Kd: 20 nM
[2]; third of three sites
  Kd: 3000 nM

## CN1CCN(CC(=O)N2c3ccccc3C(=O)Nc3cccnc32)CC1 [Pirenzepine, pirenzepine, [N-methyl-^3 H]]
M2-sites
  interaction with M2-sites: also interact with M2
M1-sites
  selective binding to subtype of muscarinic receptors: binds selectively to subtype of muscarinic receptors
